SMILES strings stand for the structures.

The experiment has as its target T1, estrogen receptor (Homo sapiens, UniProt P03372).
T1 construct: since the MCF-7 cells express estrogen receptors; endogenous in cells; host or cells: MCF-7 human mammary carcinoma cells, infected with adenovirus 5-ERE-tk-luciferase (reporter only)
T1 sequence (P03372 1-595): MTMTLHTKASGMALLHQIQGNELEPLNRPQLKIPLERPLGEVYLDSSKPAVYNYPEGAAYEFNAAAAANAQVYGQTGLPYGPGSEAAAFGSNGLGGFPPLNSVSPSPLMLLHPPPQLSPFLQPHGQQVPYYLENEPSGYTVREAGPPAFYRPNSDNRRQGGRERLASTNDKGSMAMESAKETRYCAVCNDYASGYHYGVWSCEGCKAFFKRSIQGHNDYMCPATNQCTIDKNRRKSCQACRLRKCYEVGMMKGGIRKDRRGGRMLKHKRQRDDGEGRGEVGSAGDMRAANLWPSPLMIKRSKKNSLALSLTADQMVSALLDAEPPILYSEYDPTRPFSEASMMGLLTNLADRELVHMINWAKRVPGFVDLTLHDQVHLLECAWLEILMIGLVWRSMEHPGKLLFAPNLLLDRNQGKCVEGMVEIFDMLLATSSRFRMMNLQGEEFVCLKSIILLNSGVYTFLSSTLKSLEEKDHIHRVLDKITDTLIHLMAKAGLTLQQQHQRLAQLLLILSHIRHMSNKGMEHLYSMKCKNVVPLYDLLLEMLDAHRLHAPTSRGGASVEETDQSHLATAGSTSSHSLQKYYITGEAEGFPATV
Briefly: Estrogen antagonist/agonist activity in MCF-7 cells infected with adenovirus 5-ERE-tk-luciferase (luciferase reporter). It counts as cell-based. As to conditions: antagonist mode, co-dosed with 10 pM 17β-estradiol, 24 h treatment. From the text: Estrogen antagonist activity was shown for representative compounds of this invention in a standard pharmacological test procedure using MCF-7 cells transfected with an estrogen receptor. When administered orally, the compounds of this invention act at least partially as prodrugs for the corresponding hydroxylated compounds disclosed in EP 802183. Accordingly, the compounds of this invention are tissue selective estrogens, meaning that in certain tissue containing estrogen receptors, the compounds will act as estrogen agonists, and in other tissue containing estrogen receptors, the compounds will act as antagonists. […] The cell lysates (20 uL) were transferred to a 96 well luminometer plate, and luciferase activity was measured in a MicroLumat LB 96 P luminometer (EG and G Bethold) using 100 uL/well of luciferase substrate (Promega Corporation). […] Following the injection of the substrate, luciferase activity was measured for 10 seconds after a 1 second delay. The data were transferred from the luminometer to a Macintosh personal computer and analyzed using the JMP software (SAS institute); this program subtracts the background reading from the luciferase measurement for each well and then determine the mean and standard deviation of each treatment. […]
(In a reporter assay the amount or activity of a reporter protein is the signal.)

As usually defined, the IC50 is the concentration needed to halve the response being measured. The low end stands for inhibition by little substance, the high end for a need for much substance. The compound `Cc1c(-c2ccc(OC3OC(C(=O)O)C(O)C(O)C3O)cc2)n(Cc2ccc(OCCN3CCCCCC3)cc2)c2ccc(O)cc12` (centres unmarked) [Compound 38, 1-[4-(2-Azepan-1-yl-ethoxy)-benzyl]-2-(4-hydroxy-phenyl)-3-methyl-1H-indol-5-ol 4-O-glucuronide] had an IC50 of 1100 nM.
To `Cc1c(-c2ccc(O)cc2)n(Cc2ccc(OCCN3CCCCCC3)cc2)c2ccc(OC3OC(C(=O)O)C(O)C(O)C3O)cc12` (centres unmarked) [Compound 30, 1-[4-(2-Azepan-1-yl-ethoxy)-benzyl]-2-(4-hydroxy-phenyl)-3-methyl-1H-indol-5-ol 5-O-glucuronide] belongs 210 nM.
